The record followed here is ChEMBL document CHEMBL1201862, “PubChem BioAssay data set” (2004).

Among the test systems are M19-MEL; DMS-114; Hs-578T; BT-549; SNB-78; RXF 631; KM-20L2; LXFL 529; HOP-18.
What all share (experiment): growth of human tumour cells (NCI), 48 h

Each structure is given as a SMILES string. Structures can show the parent of a compound that is named as a salt.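 Cultured in 96-well plates, cells were exposed to test compound for 48 hours across five concentrations. The concentration for 50% growth inhibition is given as GI50.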 Active and inactive are the calls of the source. Cut-off read from the data, not from the text of the source: active = GI50 up to about 1.1 µM and inactive = higher.

Regarding `O=C1c2c(O)cccc2-c2nn(CCNCCO)c3ccc(NCCNCCO)c1c23` [LOSOXANTRONE HYDROCHLORIDE], the GI50 in the assay with M19-MEL was 0.16 µM (active); in the assay with DMS-114, < 0.0104 µM (active); with Hs-578T it was 0.0791 µM (active); in the assay with BT-549 it was 0.182 µM (active); with SNB-78 it was 0.634 µM (active); in the assay on RXF 631 it was 0.318 µM (active). In addition, the GI50 in the assay with KM-20L2 was 1.66 µM (inactive); in the assay with LXFL 529, 0.107 µM (active); with HOP-18, 0.248 µM (active).

Regarding `CC1(C)OC(C(N)=O)=C(C(N)=O)O1`, the GI50 in the assay with M19-MEL, in the assay on DMS-114, in the assay on KM-20L2, with LXFL 529 and in the assay on HOP-18 was > 100 µM (inactive) each time.

As to `CS(=O)(=O)OCCN(CCOS(C)(=O)=O)c1ccc(/C=N/c2ccc(-c3csc(COc4ccccc4)n3)cc2)cc1`, the GI50 in the assay with M19-MEL was 13.4 µM (inactive); with DMS-114 it was 5.85 µM (inactive); in the assay with Hs-578T, 15.1 µM (inactive); with BT-549, 10.7 µM (inactive); in the assay with SNB-78 it was 18.7 µM (inactive); in the assay on KM-20L2, 3.14 µM (inactive). Besides, the GI50 was 12.1 µM (inactive) in the assay with LXFL 529 and 5.25 µM (inactive) in the assay on HOP-18.

For the compound `COc1ccc(S(=O)(=O)c2ccccc2[N+](=O)[O-])cc1`, the GI50 in the assay with M19-MEL is 77.8 µM (inactive); in the assay on DMS-114, 57.7 µM (inactive); in the assay with KM-20L2, > 100 µM (inactive); in the assay with LXFL 529, 92 µM (inactive); with HOP-18 it was > 100 µM (inactive).

Turning to `CC1CCCP(=O)(c2ccccc2)CC1` (configuration not stated), the GI50 in the assay with M19-MEL, in the assay on DMS-114, in the assay on SNB-78, in the assay with RXF 631, with KM-20L2 and with LXFL 529 was > 100 µM (inactive) in each case. The GI50 in the assay on HOP-18 is 0.202 µM (active).

For the compound `COC(=O)[C@]1(C)CCCC2(C)C1CC[C@H]1C=C(C)[C@H]3CCC12C3` (some centres not stated), the GI50 with DMS-114 was 86.9 µM (inactive); with SNB-78, > 100 µM (inactive); with RXF 631, > 100 µM (inactive); in the assay on KM-20L2, > 100 µM (inactive); with LXFL 529, > 100 µM (inactive).

As for `CC(=O)N[C@@H]1C(O)CN2C(=O)C(=O)O[C@H](C(O)CO)[C@@H]12` (some centres not stated), the GI50 in the assay with M19-MEL, with DMS-114, in the assay on SNB-78, with RXF 631, in the assay with KM-20L2 and in the assay with LXFL 529 was > 100 µM (inactive) throughout. The GI50 in the assay on HOP-18 was 74 µM (inactive).

On to `Cc1ccc(/C=C/C(=O)c2ccc([N+](=O)[O-])cc2)cc1`, for which the GI50 in the assay on M19-MEL is > 100 µM (inactive); in the assay on SNB-78, > 100 µM (inactive); in the assay on RXF 631, > 100 µM (inactive); with KM-20L2, > 100 µM (inactive); with LXFL 529, 74.3 µM (inactive); in the assay on HOP-18 it was > 100 µM (inactive).

With `O=[N+]([O-])c1ccc(Nc2cccc3c4cc[nH]c(-c5ccccc5)c-4nc23)c([N+](=O)[O-])c1`, the GI50 with M19-MEL, with DMS-114, in the assay on SNB-78, with KM-20L2 and with HOP-18 was > 100 µM (inactive) throughout.

Take `O=C(NN1C(=O)CSC1c1ccc(Cl)c(Cl)c1)c1ccncc1` (configuration not stated): the GI50 is 30.6 µM (inactive) in the assay on DMS-114; 64.6 µM (inactive) in the assay with SNB-78; 94.4 µM (inactive) with RXF 631; 74.6 µM (inactive) in the assay on KM-20L2; 71.6 µM (inactive) in the assay with LXFL 529; < 0.01 µM (active) in the assay with HOP-18.

With `COC(=O)C1CC2(c3ccccc3)C(=O)c3ccccc3N2O1` (configuration not stated), the GI50 with M19-MEL was 64.4 µM (inactive); in the assay on DMS-114, 46.6 µM (inactive); with SNB-78, > 100 µM (inactive); with KM-20L2 it was > 100 µM (inactive); with LXFL 529, 50 µM (inactive); in the assay with HOP-18 it was > 100 µM (inactive).

Take `O=c1ccc2ccccc2o1` [COUMARIN]: the GI50 in the assay on M19-MEL, with DMS-114, in the assay with SNB-78, in the assay on KM-20L2, in the assay on LXFL 529 and in the assay on HOP-18 was > 100 µM (inactive) throughout.

With `COc1ccc(NC(=O)CSc2nnc(Cc3ccccc3)o2)cc1`, the GI50 in the assay on M19-MEL was 82.6 µM (inactive); in the assay with DMS-114, 17.9 µM (inactive); in the assay with SNB-78, > 100 µM (inactive); in the assay with KM-20L2, > 100 µM (inactive); with LXFL 529, > 100 µM (inactive); in the assay with HOP-18, > 100 µM (inactive).

Regarding `C=CCNC(=O)C(C)C1CCC2(C)C=CC(=O)C(C)=C2C1O` (configuration not stated), the GI50 with M19-MEL was > 100 µM (inactive); in the assay on DMS-114 it was > 100 µM (inactive); with SNB-78, > 25.8 µM (inactive); with KM-20L2, > 100 µM (inactive); in the assay on HOP-18 it was > 100 µM (inactive).

Consider `COc1nc(N)c(NC(C)=O)c(=O)n1C`, for which the GI50 with DMS-114, with SNB-78, in the assay with RXF 631, in the assay with KM-20L2, with LXFL 529 and in the assay with HOP-18 was > 100 µM (inactive) throughout.

On to `COC(=O)C1=C(C(=O)OC)SC(=C(/N=N/c2ccccc2)c2ccccc2)S1`, for which the GI50 with M19-MEL is > 100 µM (inactive); in the assay on SNB-78 it was > 100 µM (inactive); in the assay on RXF 631, > 100 µM (inactive); with KM-20L2, > 100 µM (inactive); in the assay on LXFL 529, 58.5 µM (inactive); with HOP-18, > 100 µM (inactive).

As to `CCOC(=O)/C(C#N)=C(N)/C(=N\Nc1cccc(C(F)(F)F)c1)C(=O)OCC`, the GI50 in the assay on M19-MEL, with DMS-114, with SNB-78, in the assay on KM-20L2, in the assay with LXFL 529 and with HOP-18 was > 100 µM (inactive) each time.

On to `O=P(c1ccccc1)(c1ccccc1)C1CC=C(c2ccccc2)C2(CCCC2)C1` (configuration not stated), for which the GI50 with M19-MEL is 43.7 µM (inactive); in the assay on DMS-114, 34.4 µM (inactive); with SNB-78, > 100 µM (inactive); in the assay on RXF 631 it was 40.1 µM (inactive); in the assay with KM-20L2, 33.7 µM (inactive); in the assay on LXFL 529, > 100 µM (inactive). Also, the GI50 in the assay on HOP-18 is 25.6 µM (inactive).

Regarding `Cc1ccc(NC(=O)/C(CC(=O)c2c[n+]([O-])c3ccccc3[n+]2[O-])=N\NC(=O)C[n+]2ccccc2)cc1`, the GI50 in the assay with M19-MEL, in the assay with DMS-114, with SNB-78, in the assay on RXF 631, with KM-20L2 and with LXFL 529 was > 100 µM (inactive) throughout. Besides, in the assay with HOP-18, the GI50 was > 100 µM (inactive).

With `CC(C)=CCc1c(O)ccc2c1OC1c3ccc(O)c(CC=C(C)C)c3OCC21` (configuration not stated), the GI50 was 11.4 µM (inactive) with M19-MEL; 11.4 µM (inactive) with DMS-114; 12.1 µM (inactive) in the assay with SNB-78; 18.7 µM (inactive) in the assay on KM-20L2; 17.6 µM (inactive) with HOP-18.

As for `CCOC(=O)Nc1ccc(S(=O)(=O)OC)cc1.CCOC(=O)Nc1ccc(S(=O)(=O)OC)cc1.NC(=O)NCCO`, the GI50 was 29.9 µM (inactive) with M19-MEL; 22.1 µM (inactive) in the assay on DMS-114; > 50 µM (inactive) in the assay on SNB-78; 46.5 µM (inactive) in the assay with RXF 631; > 50 µM (inactive) in the assay on KM-20L2; 29.4 µM (inactive) with LXFL 529. In addition, the GI50 in the assay with HOP-18 is 49.4 µM (inactive).

Regarding `Cc1ccc(Oc2ccc(C)cc2[N+](=O)[O-])cc1`, the GI50 with M19-MEL is 79.4 µM (inactive); in the assay on DMS-114, 28.4 µM (inactive); in the assay on SNB-78 it was 31.6 µM (inactive); with RXF 631, > 100 µM (inactive); in the assay with KM-20L2 it was > 100 µM (inactive); in the assay on LXFL 529 it was 43.6 µM (inactive). Moreover, in the assay with HOP-18, the GI50 is > 100 µM (inactive).
